This is an account of results in US5447919A, “Sulfated oligosaccharides” (Hoffmann-La Roche Inc., priority 1991, dated 1995).

For assay [1], the system named is smooth muscle cells of rats. Nature of the assay: Anti-proliferative activity in smooth muscle cell culture (% inhibition of growth after 7 days). To be noted: for Anti-proliferative activity % inhibition: rat smooth muscle cells, 7 days, test substance 100 mg/ml as printed (100 μl/ml), vs non-inhibited growth. The format is cell-based, rat. As for the experimental part:
The anti-proliferative activity of the substances was determined in cell cultures as follows: smooth muscle cells of rats (cultivated in DMEM with 10% FCS at 37° C. and 5% CO2) were applied to cell culture plates with a density of 8×10^3 cells/well. After 4 hours, the number of adhered cells was determined and the substances to be tested ([…]) were added. Cells to which test substance was not added served as a comparison and heparin ([…]) served as a positive control. The cells were incubated for 7 days and then the cell number was determined. The antiproliferative activity of the individual substances was calculated as the % inhibition in comparison to non-inhibited growth: [formula] wherein cell number(d=0) =cell number after 4 h […]
cell number(-) =cell number to which test substances was not added, after 7 days. cell number (inhib) =cell number with […] of the test substance

Assay [2] concerns the target Factor Xa (Bos taurus, UniProt P00743). Nature of the assay: anti-Xa Clotting Assay. To be noted: concentration which leads to a coagulation time double the control value; citrated plasma. The format is biochemical. On the procedure:
(§1) The blood coagulation-ihibiting activity was determined as follows:
anti-Xa Clotting Assay: 25 μl of citrated plasma having various concentrations of test compound are mixed with 75 μl of Factor Xa (Diagnostic Reagents, Thame, Oxon, Great Britain) diluted 1:100 in 0.63% citrate buffer (pH 7.3) which contains 41 mM imidazole, 82 mM NaCl and 0.1% albumin. After warming to 37° C. for 2 minutes, 200 μl of a 1:1 mixture of Factor X Deficient Plasma (Diagnostic Reagents) and Platelet Substitute (Diagnostic Reagents) are added and the mixture is incubated at 37° C. for 20 seconds. After the addition of 100 μl of pre-warmed 50 mM calcium chloride solution, the coagulation time is measured in a Fibrometer.
(§2) The activity of the test compound is given as the IC50, which is that concentration [μg/ml] which leads to a coagulation time which is double the control value.

In assay [3] the test system is citrated human plasma. Nature of the assay: aPTT (activated partial thromboplastin time) Test. Type of assay: biochemical. To be noted: concentration which leads to a coagulation time double the control value. As for the experimental part:
as §1
aPTT (activated partial thromboplastin time) Test (see Walenga et al., CRC Critical Reviews in Laboratory Sciences 22 (4) 361-389(1986)): 100 μl of citrated human plasma, which contains various concentrations of test compound, are incubated at 37° C. for 8 minutes with 100 μl of Activated Thrombofax (Ortho Diagnostics, Raritan, N.J., U.S.A.). 100 μl of prewarmed 25 mM calcium chloride solution are then added and the coagulation time is measured in a Fibrometer Coagulation Timer (Becton, Dickinson Basle).
as §2

Sequence of Factor Xa (P00743 234-492 limits assumed): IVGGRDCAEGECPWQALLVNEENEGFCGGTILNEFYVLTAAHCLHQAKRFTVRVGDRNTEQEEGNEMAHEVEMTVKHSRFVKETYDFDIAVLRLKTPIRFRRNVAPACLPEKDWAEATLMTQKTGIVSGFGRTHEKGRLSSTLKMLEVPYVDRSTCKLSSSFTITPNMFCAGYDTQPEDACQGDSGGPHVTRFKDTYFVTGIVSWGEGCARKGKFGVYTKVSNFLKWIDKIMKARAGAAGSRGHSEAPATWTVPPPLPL
Sequence of Factor Xa (P00743 41-180 partner limits assumed): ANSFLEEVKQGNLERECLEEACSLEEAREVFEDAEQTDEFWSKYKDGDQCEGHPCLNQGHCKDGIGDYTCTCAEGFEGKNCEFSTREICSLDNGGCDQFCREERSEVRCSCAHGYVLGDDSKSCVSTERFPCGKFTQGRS

Heparin [reference compound]: the “anti-proliferative activity (in words)” value in assay [1] (summary of test results of Table 1) is listed as “anti-proliferatively active”.
sulfated melezitese [Example 2]: the “Anti-coagulation activity IC50, Coagulation inhibition Xa” value in assay [2] was 250 µg/mL. Besides, the “Anti-coagulation activity IC50, Coagulation inhibition aPTT” value in assay [3] worked out at 150 µg/mL. Also, the “Anti-proliferative activity % inhibition” value in assay [1] came out at 25%.
For sulfated raffinose [Example 1], in that order: over 1000 µg/mL, 27 µg/mL and 41%.
